Patent US9655975B2, “Prodrug using nitroimidazole” (UNIVERSITY OF TSUKUBA, priority 2012, dated 2017)

Legend:
Type in all cases: cell-based
[1] = tested on: Human pancreatic cancer cells (MIA PaCa-2); experiment: Incubation of Compound 5 in MIA PaCa-2 cells under low oxygen (Example 5), release by LC/MS; conditions: Compound 5 at 10 μM, MIA PaCa-2, 20% O2 vs 0.1% O2, LC/MS, FIG. 3
Experimental: Human pancreatic cancer cells (MIA PaCa-2, acquired from Riken Cell Bank) were prepared as a suspension having a cell count of 1×10^4 cells/mL), and dispensed into a 96-well plate. After 24 hours, Compound 5 was added to a concentration of 10 μM and the cells were cultured, in a normal oxygen concentration incubator (20% O2) or at a low-oxygen work station (0.1% O2). After a given time had elapsed, the culture medium was recovered, trypsin was added and the cells were recovered. The recovered cells were disrupted by sonic treatment, the compound was extracted with acetonitrile, and analysis by LC/MS was carried out under the following conditions.
Column used: Lachrom Ultra C18 (particle size, 2 μm; 2 mm×50 mm) column
Measurement wavelength: 220 nm
Eluent A: 0.1% TFA-containing milliQ
Gradient: 95:5 (Eluent A:Eluent B)→95:5 (5 minutes)→30:70 (15 minutes)
By carrying out this measurement, the amount of compound released in a low-oxygen environment and the amount of compound released in a normal oxygen environment were compared.

cultured cells = experiment: Incubation of Compound 5 in cultured cells under low oxygen (Example 4), release of naphthylmethylamine by HPLC; conditions: Compound 5 at 1 mM, 6 hours, 20% O2 vs 1% O2, HPLC, FIG. 2
Experimental: This example was carried out to confirm that Compound 5 is reduced in cells within a hypoxic environment, and that naphthylmethylamine is released by a subsequent intramolecular cyclization reaction.
A cell suspension prepared to a cell count of 1×10^4 cells/mL was dispensed into a 96-well plate, and the cells were cultured by 24 hours of incubation at 37° C. After 24 hours, the synthesized Compound 5 was added to the cells in an amount of 1 mM. Following addition, the cells were cultured for 6 hours each in a normal oxygen concentration incubator (20% O2) or at a low-oxygen work station (1% O2). The culture medium was then recovered, 50 μL of Trypsin/EDTA was added and 5 minutes of incubation was carried out, following which the cells were stripped away and added to the medium that was earlier recovered. Next, the recovered sample was freeze-dried overnight, 200 μL of acetonitrile was added, and 30 minutes of ultrasonic cleaning was carried out. In addition, dead cells were precipitated by centrifugal separation (3,000 rpm, 10 min), the supernatant was recovered, and the acetonitrile was removed with a centrifugal evaporator. Next, 200 μL of methanol (for LC/MS) was added to the Eppendorf tube used in centrifugation, the tube contents were passed through a filter (0.2 μm), and LC/MS measurement and high-performance liquid chromatography (HPLC) measurement were carried out. […]

[2] = tested on: Human pancreatic cancer cells (MIA PaCa-2); experiment: Evaluation of cell survival rate by WST assay, normal vs low oxygen (Example 7, Comparative Example)
Experimental: Human pancreatic cancer cells (MIA PaCa-2, acquired from Riken Cell Bank) were dispensed at a density of 5,000 cells/well and cultured for 24 hours in Dulbecco's modified Eagle medium (DMEM), following which Compound 7 was added to the specified concentration and 6 hours of culturing was carried out at a normal oxygen concentration (20%) or a low oxygen concentration (0.1%). After culturing, DMEM medium replacement was carried out, the compound was removed, and 48 hours of culturing was carried out in a normal oxygen concentration incubator, following which the cell survival rate was analyzed by a WST assay.
Compound 8 below, which is mentioned in WO 2009/018163 A1, was furnished for use. The cell survival rates were compared in tests conducted by the method described in Example 7 on both Compound 8 and a compound within the scope of this invention (aside from the fact that the corresponding linker was —CH2CH2C(═O)—, the manner of bonding between nitroimidazole and the drug was the same; Compound 7 of Example 6).

[3] = tested on: Human pancreatic cancer cells (MIA PaCa-2); experiment: Release of drug from prednisolone prodrug in low-oxygen environment (Example 16), LC/MS; conditions: Compound 13 at a concentration of 10, one hour, 20% O2 vs 0.1% O2, LC/MS, FIG. 8
Experimental: Human pancreatic cancer cells (MIA PaCa-2, acquired from Riken Cell Bank) were prepared as a suspension having a cell count of 1×10^4 cells/mL), and dispensed into a 96-well plate. After 24 hours, Compound 13 was added to a concentration of 10 and the cells were cultured in a normal oxygen concentration incubator (20% O2) or at a low-oxygen work station (0.1% O2). One hour layer, the culture medium was recovered, trypsin was added, and the cells were recovered. The recovered cells were disrupted by sonic treatment and the compound was extracted with acetonitrile, following which analysis by LC/MS of the amount of prednisolone released was carried out under the following conditions.
Column used: TSKgel ODS-100Z (particle size, 3 μm; 2 mm×75 mm) column
Measurement wavelength: 250 nm
Eluent A: 0.1 M ammonium acetate
Gradient: 40:60 (Eluent A:Eluent B)→10:90 (20 minutes)
By carrying out this measurement, the amount of compound released in a low-oxygen environment was compared with the amount released in a normal oxygen environment.

O=C(CCn1ccnc1[N+](=O)[O-])NCc1cccc2ccccc12 [Compound 5, N-Naphthylmethyl-3-(2-Nitro-1H-Imidazolyl)propionylamide]
amount of naphthylmethylamine released in low-oxygen vs normal oxygen environment [1]: much naphthylmethylamine is released in a low-oxygen environment
amount of naphthylmethylamine released in low-oxygen vs normal oxygen environment (cultured cells): much naphthylmethylamine is released in a low-oxygen environment

COc1cccc2c1C(=O)c1c(O)c3c(c(O)c1C2=O)CC(O)(C(=O)CO)CC3OC1CC(NC(=O)CCn2ccnc2[N+](=O)[O-])C(O)C(C)O1 (centres unmarked) [Compound 7]
cell survival rate at low oxygen concentration compared with normal oxygen concentration ([2]; 6 hours at 20% or 0.1% O2, then 48 hours normal oxygen, WST assay, FIG. 4): significantly lowers the survival rate of human pancreatic cancer cells at a low-oxygen concentration compared with a normal oxygen concentration
cytotoxicity compared with known Compound 8 ([2]; method of Example 7, MIA PaCa-2, FIG. 5): significantly higher cytotoxicity

C[C@]12C=CC(=O)C=C1CC[C@@H]1[C@@H]2[C@@H](O)C[C@@]2(C)[C@H]1CC[C@]2(O)C(=O)COC(=O)CCn1ccnc1[N+](=O)[O-] [Compound 13]
amount of prednisolone released in low-oxygen vs normal oxygen environment [3]: much prednisolone is released in a low-oxygen environment
